The OligoGym collection
Several values for one entry are separate records, joined by “and”; a condition that tells them apart may be missing. Equal entries are not always repeated. HELM strings list units from the 5' end as sugar, base in round brackets, then linkage (d deoxyribose, r ribose, m 2'-O-methyl, p phosphodiester). Methylation of C is not given here. [moe] = 2'-O-(2-methoxyethyl) (MOE); [cEt] = constrained ethyl (cEt); [sp] = phosphorothioate linkage

Molecular target: HBV
Conditions: ASO

Row | Substance | target mRNA inhibition (HepG2, 0.07 µM) | also measured
1 | RNA1{[moe](C)[sp].[moe](T)[sp].[moe](A)[sp].d(G)[sp].d(T)[sp].d(A)[sp].d(A)[sp].d(A)[sp].d(C)[sp].d(T)[sp].d(G)[sp].d(A)[sp].[moe](G)[sp].[moe](C)[sp].[moe](C)[sp].[moe](A)}$$$$V2.0 | 66% and 60% | 
2 | RNA1{[moe](A)[sp].[moe](A)[sp].[moe](C)[sp].[moe](C)[sp].d(A)[sp].d(C)[sp].d(T)[sp].d(G)[sp].d(A)[sp].d(A)[sp].d(C)[sp].d(A)[sp].d(A)[sp].[moe](A)[sp].[moe](T)[sp].[moe](G)}$$$$V2.0 | 52% and 54% | 
3 | RNA1{[moe](C)[sp].[cEt](C)[sp].[cEt](A)[sp].d(C)[sp].d(A)[sp].d(T)[sp].d(C)[sp].d(A)[sp].d(T)[sp].d(C)[sp].d(C)[sp].d(A)[sp].d(T)[sp].[cEt](A)[sp].[cEt](T)[sp].[moe](A)}$$$$V2.0 | 60% and 50% | 
4 | RNA1{[moe](G)[sp].[moe](G)[sp].[moe](A)[sp].[moe](G)[sp].[moe](T)[sp].d(T)[sp].d(C)[sp].d(C)[sp].d(G)[sp].d(C)[sp].d(A)[sp].d(G)[sp].d(T)[sp].d(A)[sp].[moe](T)[sp].[moe](G)}$$$$V2.0 | 74% and 50% | 
5 | RNA1{[moe](G)[sp].[cEt](T)[sp].[cEt](G)[sp].d(C)[sp].d(A)[sp].d(G)[sp].d(A)[sp].d(G)[sp].d(G)[sp].d(T)[sp].d(G)[sp].d(A)[sp].d(A)[sp].[cEt](G)[sp].[cEt](C)[sp].[moe](G)}$$$$V2.0 | 67% and 70% | 
6 | RNA1{[moe](C)[sp].[moe](G)[sp].[moe](C)[sp].d(A)[sp].d(G)[sp].d(T)[sp].d(A)[sp].d(T)[sp].d(G)[sp].d(G)[sp].d(A)[sp].d(T)[sp].[moe](C)[sp].[moe](G)[sp].[moe](G)[sp].[moe](C)[sp].[moe](A)}$$$$V2.0 | 85% and 80% | target mRNA inhibition (HepG2, 0.0092593 µM): 7%; target mRNA inhibition (HepG2, 0.0277778 µM): 38%; target mRNA inhibition (HepG2, 0.0833333 µM): 78%; target mRNA inhibition (HepG2, 0.25 µM): 89%
7 | RNA1{[moe](T)[sp].[moe](G)[sp].[moe](C)[sp].[moe](A)[sp].[moe](G)[sp].d(A)[sp].d(G)[sp].d(G)[sp].d(T)[sp].d(G)[sp].d(A)[sp].d(A)[sp].d(G)[sp].d(C)[sp].[moe](G)[sp].[moe](A)[sp].[moe](A)}$$$$V2.0 | 55% and 56% | 
8 | RNA1{[moe](T)[sp].[moe](G)[sp].[moe](A)[sp].[moe](A)[sp].d(G)[sp].d(C)[sp].d(G)[sp].d(A)[sp].d(A)[sp].d(G)[sp].d(T)[sp].d(G)[sp].d(C)[sp].[moe](A)[sp].[moe](C)[sp].[moe](A)}$$$$V2.0 | 43% and 52% | 
9 | RNA1{[moe](C)[sp].[moe](G)[sp].d(T)[sp].d(G)[sp].d(C)[sp].d(A)[sp].d(G)[sp].d(A)[sp].d(G)[sp].d(G)[sp].d(T)[sp].[moe](G)[sp].[moe](A)[sp].[moe](A)[sp].[moe](G)[sp].[moe](C)[sp].[moe](G)}$$$$V2.0 | 74% and 68% | 
10 | RNA1{[moe](G)[sp].[moe](A)[sp].[moe](A)[sp].[moe](C)[sp].d(T)[sp].d(G)[sp].d(G)[sp].d(A)[sp].d(G)[sp].d(C)[sp].d(C)[sp].d(A)[sp].d(C)[sp].[moe](C)[sp].[moe](A)[sp].[moe](G)[sp].[moe](C)}$$$$V2.0 | 69% and 49% | 
11 | RNA1{[moe](A)[sp].[moe](G)[sp].d(A)[sp].d(G)[sp].d(A)[sp].d(A)[sp].d(G)[sp].d(T)[sp].d(C)[sp].d(C)[sp].d(A)[sp].[moe](C)[sp].[moe](C)[sp].[moe](A)[sp].[moe](C)[sp].[moe](G)[sp].[moe](A)}$$$$V2.0 | 39% and 27% | 
12 | RNA1{[moe](G)[sp].[moe](G)[sp].d(T)[sp].d(G)[sp].d(A)[sp].d(A)[sp].d(G)[sp].d(C)[sp].d(G)[sp].d(A)[sp].d(A)[sp].[moe](G)[sp].[moe](T)[sp].[moe](G)[sp].[moe](C)[sp].[moe](A)[sp].[moe](C)}$$$$V2.0 | 77% and 71% | 
13 | RNA1{[moe](A)[sp].[cEt](G)[sp].[cEt](A)[sp].d(A)[sp].d(G)[sp].d(A)[sp].d(T)[sp].d(G)[sp].d(A)[sp].d(G)[sp].d(G)[sp].d(C)[sp].d(A)[sp].[cEt](T)[sp].[cEt](A)[sp].[moe](G)}$$$$V2.0 | 64% and 63% | 
14 | RNA1{[moe](C)[sp].[cEt](A)[sp].[cEt](C)[sp].d(A)[sp].d(G)[sp].d(C)[sp].d(T)[sp].d(T)[sp].d(G)[sp].d(G)[sp].d(A)[sp].d(G)[sp].d(G)[sp].[cEt](C)[sp].[cEt](T)[sp].[moe](T)}$$$$V2.0 | 11% and 0% | 
15 | RNA1{[moe](G)[sp].[moe](C)[sp].[moe](A)[sp].d(G)[sp].d(A)[sp].d(G)[sp].d(G)[sp].d(T)[sp].d(G)[sp].d(A)[sp].d(A)[sp].d(G)[sp].d(C)[sp].[cEt](G)[sp].[cEt](A)[sp].[cEt](A)}$$$$V2.0 | 71% and 50% | 
16 | RNA1{[moe](A)[sp].[cEt](C)[sp].d(C)[sp].d(A)[sp].d(C)[sp].d(T)[sp].d(G)[sp].d(A)[sp].d(A)[sp].d(C)[sp].d(A)[sp].d(A)[sp].[cEt](A)[sp].[moe](T)[sp].[cEt](G)[sp].[moe](G)}$$$$V2.0 | 75% and 64% | 

Row | Substance | target mRNA inhibition (HepG2, 0.07 µM) | also measured
17 | RNA1{[moe](A)[sp].[moe](C)[sp].[moe](C)[sp].[moe](A)[sp].d(C)[sp].d(T)[sp].d(G)[sp].d(A)[sp].d(A)[sp].d(C)[sp].d(A)[sp].d(A)[sp].d(A)[sp].[moe](T)[sp].[moe](G)[sp].[moe](G)[sp].[moe](C)}$$$$V2.0 | 60% and 61% | 
18 | RNA1{[moe](T)[sp].[cEt](G)[sp].d(A)[sp].d(G)[sp].d(A)[sp].d(G)[sp].d(A)[sp].d(A)[sp].d(G)[sp].d(T)[sp].d(C)[sp].d(C)[sp].[cEt](A)[sp].[moe](C)[sp].[cEt](C)[sp].[moe](A)}$$$$V2.0 | 60% and 43% | 
19 | RNA1{[moe](C)[sp].[moe](C)[sp].d(A)[sp].d(A)[sp].d(T)[sp].d(T)[sp].d(T)[sp].d(A)[sp].d(T)[sp].d(G)[sp].d(C)[sp].[moe](C)[sp].[moe](T)[sp].[moe](A)[sp].[moe](C)[sp].[moe](A)}$$$$V2.0 | 13% and 22% | 
20 | RNA1{[moe](C)[sp].[moe](C)[sp].d(A)[sp].d(A)[sp].d(T)[sp].d(T)[sp].d(T)[sp].d(A)[sp].d(T)[sp].d(G)[sp].d(C)[sp].[moe](C)[sp].[moe](T)[sp].[moe](A)[sp].[moe](C)[sp].[moe](A)[sp].[moe](G)}$$$$V2.0 | 41% and 42% | 
21 | RNA1{[moe](A)[sp].[moe](A)[sp].[moe](C)[sp].[moe](T)[sp].[moe](G)[sp].d(G)[sp].d(A)[sp].d(G)[sp].d(C)[sp].d(C)[sp].d(A)[sp].d(C)[sp].d(C)[sp].d(A)[sp].[moe](G)[sp].[moe](C)}$$$$V2.0 | 50% and 39% | 
22 | RNA1{[moe](A)[sp].[moe](G)[sp].d(A)[sp].d(G)[sp].d(G)[sp].d(T)[sp].d(G)[sp].d(A)[sp].d(A)[sp].d(G)[sp].d(C)[sp].[moe](G)[sp].[moe](A)[sp].[moe](A)[sp].[moe](G)[sp].[moe](T)[sp].[moe](G)}$$$$V2.0 | 56% | 
23 | RNA1{[moe](A)[sp].[cEt](A)[sp].d(C)[sp].d(C)[sp].d(A)[sp].d(C)[sp].d(T)[sp].d(G)[sp].d(A)[sp].d(A)[sp].d(C)[sp].d(A)[sp].[cEt](A)[sp].[moe](A)[sp].[cEt](T)[sp].[moe](G)}$$$$V2.0 | 55% and 38% | 
24 | RNA1{[moe](G)[sp].[moe](C)[sp].[moe](A)[sp].[moe](C)[sp].d(T)[sp].d(A)[sp].d(G)[sp].d(T)[sp].d(A)[sp].d(A)[sp].d(A)[sp].d(C)[sp].d(T)[sp].[moe](G)[sp].[moe](A)[sp].[moe](G)}$$$$V2.0 | 52% and 53% | 
25 | RNA1{[moe](A)[sp].[cEt](G)[sp].[cEt](G)[sp].d(T)[sp].d(G)[sp].d(A)[sp].d(A)[sp].d(G)[sp].d(C)[sp].d(G)[sp].d(A)[sp].d(A)[sp].d(G)[sp].[cEt](T)[sp].[cEt](G)[sp].[moe](C)}$$$$V2.0 | 79% | target mRNA inhibition (HepG2, 0.009375 µM): 21%; target mRNA inhibition (HepG2, 0.01875 µM): 30%; target mRNA inhibition (HepG2, 0.0375 µM): 39%; target mRNA inhibition (HepG2, 0.075 µM): 61%; target mRNA inhibition (HepG2, 0.15 µM): 79%; target mRNA inhibition (HepG2, 0.3 µM): 91%
26 | RNA1{[moe](A)[sp].[moe](T)[sp].[moe](T)[sp].d(T)[sp].d(A)[sp].d(T)[sp].d(G)[sp].d(C)[sp].d(C)[sp].d(T)[sp].d(A)[sp].d(C)[sp].d(A)[sp].[moe](G)[sp].[moe](C)[sp].[moe](C)[sp].[moe](T)}$$$$V2.0 |  | target mRNA inhibition (HepG2, 0.0092593 µM): 3%; target mRNA inhibition (HepG2, 0.0277778 µM): 11%; target mRNA inhibition (HepG2, 0.0833333 µM): 13%; target mRNA inhibition (HepG2, 0.25 µM): 41%
27 | RNA1{[moe](A)[sp].[moe](C)[sp].[moe](T)[sp].d(A)[sp].d(G)[sp].d(T)[sp].d(A)[sp].d(A)[sp].d(A)[sp].d(C)[sp].d(T)[sp].d(G)[sp].[moe](A)[sp].[moe](G)[sp].[moe](C)[sp].[moe](C)}$$$$V2.0 | 64% and 69% | 
28 | RNA1{[moe](C)[sp].[moe](T)[sp].[moe](G)[sp].[moe](G)[sp].[moe](A)[sp].[moe](G)[sp].d(C)[sp].d(C)[sp].d(A)[sp].d(C)[sp].d(C)[sp].d(A)[sp].d(G)[sp].d(C)[sp].d(A)[sp].[moe](G)[sp].[moe](G)}$$$$V2.0 | 54% and 50% | 
29 | RNA1{[moe](T)[sp].[moe](G)[sp].[moe](C)[sp].[moe](A)[sp].d(G)[sp].d(A)[sp].d(G)[sp].d(G)[sp].d(T)[sp].d(G)[sp].d(A)[sp].d(A)[sp].d(G)[sp].[moe](C)[sp].[moe](G)[sp].[moe](A)[sp].[moe](A)}$$$$V2.0 | 68% and 58% | 
30 | RNA1{[moe](G)[sp].[moe](C)[sp].[moe](A)[sp].[moe](T)[sp].[moe](A)[sp].d(G)[sp].d(C)[sp].d(A)[sp].d(G)[sp].d(C)[sp].d(A)[sp].d(G)[sp].d(G)[sp].d(A)[sp].[moe](T)[sp].[moe](G)}$$$$V2.0 | 57% and 54% | 
31 | RNA1{[moe](G)[sp].[moe](T)[sp].[moe](G)[sp].d(C)[sp].d(A)[sp].d(G)[sp].d(A)[sp].d(G)[sp].d(G)[sp].d(T)[sp].d(G)[sp].d(A)[sp].d(A)[sp].[cEt](G)[sp].[cEt](C)[sp].[cEt](G)}$$$$V2.0 | 78% and 74% | 
